Results from PMC8379256, “A xanthene derivative, DS20060511, attenuates glucose intolerance by inducing skeletal muscle-specific GLUT4 translocation in mice” (Communications Biology, 2021).
Values joined by “and” are separate entries in the source; they are usually repeats but may differ in a detail not shown here. Equal entries are not always repeated.

Legend:
[1] = test system: mouse liver microsomal fraction; assay: Metabolic stability in mouse liver microsomes; format: in vitro ADME; conditions: after 1 h incubation, 1 μM
Description: C57BL/6 mice that had been denied access to food overnight received the indicated oral dose of DS20060511, and blood samples were collected from the tail vein at the indicated timepoints. Plasma samples for quantitation of DS20060511 were prepared by centrifugation. Another group of mice received oral administration DS20060511 (30 mg kg^−1) and euthanized 75 min later. The soleus and gastrocnemius muscles, heart, and inguinal WAT were removed and homogenized in water (5 vol.) for quantitation of the drug concentrations. Plasma samples and tissue homogenates were analyzed by LC-MS/MS (Nexera MP System, SHIMADZU, Kyoto, Japan; API4000 System, SCIEX, Framingham, MA). The tissue concentrations of the compound were calculated by assuming the volume of 1 g of tissue is 1 mL. Evaluation of the metabolic stability of the compound to mouse and human cytochrome P450 (CYP) was conducted as follows. […] The results were expressed as the amount of compound remaining (expressed as a percentage), based on the ratio of the relative area to that in the control (without reaction).

[2] = test system: isolated soleus and EDL muscles; assay: [3H]-2-DG uptake in isolated soleus and EDL muscles from WT and GLUT4KO mice; parameters: species or system mouse; conditions: for 2DOG Trn / IC 2DOG / 2-DG uptake Raio: DS20060511 10μM, individual muscles; for 2DOG Trn / IC 2DOG: 2DG 1 mM, incubation time 10 min; for 2-DG uptake Raio: ratio to vehicle
Description: Fig. 3 The glucose-lowering effect of DS20060511 is totally dependent on GLUT4. a Blood glucose and plasma insulin levels during oral GTT in wild-type (WT, n = 5) and GLUT4 knockout (KO, n = 6) mice. Mice received oral administration of vehicle or DS20060511 (30 mg kg^−1), 15 min prior to the glucose administration (1.5 g kg^−1). Values shown are means ± SEM. *P < 0.05, **P < 0.01 vs. vehicle by the t-test. b DS20060511-stimulated [^3H]-2-DG uptake in the isolated soleus and EDL muscles excised from WT (n = 6) and KO (n = 6) mice. Values shown are means ± SEM. **P < 0.01 vs. vehicle by the t-test.
(§1) The soleus or EDL muscle was removed from anesthetized mice (isoflurane anesthesia) that had been denied access to food overnight, and incubated with oxygenated (95% O2/5% CO2) Krebs-Henseleit Bicarbonate (KHB) buffer (118.1 mM NaCl, 4.7 mM KCl, 1.1 mM KH2PO4, 1.2 mM MgSO4, 2.5 mM CaCl2, and 25 mM NaHCO3, pH7.4) in the presence of 11.1 mM glucose at 37 °C. The muscle specimens were then treated with the indicated concentrations of the compounds in KHB buffer containing 11.1 mM glucose and 8 mM mannitol for 10 min at 37 °C. Thereafter, the muscles were rinsed with KHB buffer containing 8 mM mannitol and the compounds for 5 min at 37 °C. Lastly, the muscles were treated with the compounds in KHB buffer containing 1 mM 2-DG (with 0.3 μCi mL^−1 [^3H]-2-DG) and 8 mM mannitol (with 0.03 μCi mL^−1 [^14C]-mannitol) for 10 min at 37 °C. After the muscle specimens were washed, they were lysed with 1 N NaOH and neutralized with 1 N HCl. The ^14C- and ^3H-specific activities were counted with a liquid scintillation counter. The specific uptake of 2-DG was calculated by subtracting the nonspecific uptake of mannitol from the total 2-DG uptake. To investigate the effects of muscle contraction, muscle contraction was induced by electrical stimulation with 5 Hz (1 ms pulse duration, 100 V) for 10 min (SEN-5201, Nihon Koden, Tokyo, Japan).

[3] = test system: isolated skeletal muscles; assay: 2-DG uptake with muscle contraction (5 Hz electrical stimulation) in isolated muscles; parameters: species or system mouse; conditions: for IC 2DOG: incubation 10 min
Description: as §1

[4] = test system: WT and eNOSKO mice; assay: Oral GTT in wild-type and eNOS-knockout mice; format: in vivo, mouse; conditions: for Blood glucose: Glucose tolerance test, Wildtype, 10 mg/kg, individual animals
Description: Fig. 7 DS20060511 treatment decreases blood glucose levels in both WT and eNOSKO mice during oral GTT and ITT. a, b Blood glucose levels during oral GTT in wild-type (WT, n = 5) and eNOS-knockout (KO, n = 5–6) mice. Mice received vehicle or DS20060511 (10 mg kg^−1) orally 15 min before the glucose administration (3.0 g kg^−1). c, d Blood glucose levels during ITT in WT (n = 4) and KO (n = 5) mice. Vehicle or DS20060511 (30 mg kg^−1) was given orally at the same time as 0.5 U kg^−1 insulin injection intraperitoneally. Values shown are means ± SEM. *P < 0.05, **P < 0.01, ***P < 0.001 vs. vehicle by the t-test.
C57BL/6 and db/db mice were purchased from CLEA Japan, Tokyo, Japan. GLUT4- knockout mice were generated at RIKEN BioResource Center, Tsukuba, Japan, according to a previously described method. eNOS-knockout mice were kindly provided by Dr. Masato Tsutsui[41],[42]. The mice were group-housed under controlled illumination (12:12 h light-dark cycle) and temperature (23 ± 2 °C) conditions and given free access to normal chow and water, unless otherwise specified. The HFD-fed obese mice were prepared by feeding C57BL/6 mice a HFD for at least 8 weeks from 6 weeks of age. […] Male mice were used for all the experiments in this study. The animal care and experimental procedures used in the study were approved by The University of Tokyo Animal Care Committee (Approval number: 27-3), and the study was carried out in accordance with the Animal Experimentation Guidelines of Daiichi Sankyo Co., Ltd (Approved number: 20000411).
Mice that had been denied access to food overnight received the indicated oral dose of DS20060511 or vehicle 15 min prior to the glucose load (1.5 g kg^−1, except for eNOS-knockout mice, which received 3.0 g kg^−1). Then, after the oral glucose load, the blood glucose levels were measured using Glutest Every in samples obtained from the tail vein at the indicated timepoints. Plasma insulin concentrations were also measured with an ELISA kit (Morinaga Institute of Biological Science, Yokohama, Japan) in blood samples collected from the tail vein at the indicated timepoints.

[5] = DS20060511 1 μM, electrical stimulation +, muscles #1-3

Structure (SMILES): COc1ccc2c(C)c(C(=O)O)ccc2c1C1C2=C(CC(C)(C)CC2=O)OC2=C1C(=O)CC(C)(C)C2 [DS20060511]
- compound remaining [1]: 89%
- 2-DG uptake by isolated soleus and EDL muscles (in words) ([2]; GLUT4KO mice): no such increase in muscle uptake was observed
- 2DOG Trn ([2]; GLUT4KO, isolated EDL): 219 nmol/ml and 21.9 µM/min and 229 nmol/ml and 22.9 µM/min and 220 nmol/ml and 22.0 µM/min and 239 nmol/ml and 23.9 µM/min and 247 nmol/ml and 24.7 µM/min
- IC 2DOG ([2]; GLUT4KO, isolated EDL): 136 nmol/g and 155 nmol/g and 142 nmol/g and 149 nmol/g and 143 nmol/g and 156 nmol/g
- 2-DG uptake Raio ([2]; GLUT4KO, isolated EDL): 1.02 and 1.07 and 1.03 and 1.11 and 1.15
- 2DOG Trn ([2]; GLUT4KO, isolated Soleus): 272 nmol/ml and 27.2 µM/min and 411 nmol/ml and 41.1 µM/min and 553 nmol/ml and 55.3 µM/min and 323 nmol/ml and 32.3 µM/min and 280 nmol/ml and 28.0 µM/min and 475 nmol/ml and 47.5 µM/min
- IC 2DOG ([2]; GLUT4KO, isolated Soleus): 151 nmol/g and 223 nmol/g and 272 nmol/g and 155 nmol/g and 138 nmol/g and 244 nmol/g
- 2-DG uptake Raio ([2]; GLUT4KO, isolated Soleus): 0.86 and 1.30 and 1.75 and 1.02 and 0.89 and 1.50
- 2-DG uptake by isolated soleus and EDL muscles (in words) ([2]; WT mice): significantly increased the 2-DG uptake
- 2DOG Trn ([2]; Wildtype, isolated EDL): 620 nmol/ml and 62.0 µM/min and 476 nmol/ml and 47.6 µM/min and 591 nmol/ml and 59.1 µM/min and 474 nmol/ml and 47.4 µM/min and 359 nmol/ml and 35.9 µM/min and 351 nmol/ml and 35.1 µM/min
- IC 2DOG ([2]; Wildtype, isolated EDL): 373 nmol/g and 286 nmol/g and 340 nmol/g and 291 nmol/g and 235 nmol/g and 229 nmol/g
- 2-DG uptake Raio ([2]; Wildtype, isolated EDL): 2.47 and 1.90 and 2.36 and 2.12 and 1.61 and 1.57
- 2DOG Trn ([2]; Wildtype, isolated Soleus): 632 nmol/ml and 63.2 µM/min and 599 nmol/ml and 59.9 µM/min and 719 nmol/ml and 71.9 µM/min and 638 nmol/ml and 63.8 µM/min and 552 nmol/ml and 55.2 µM/min and 582 nmol/ml and 58.2 µM/min
- IC 2DOG ([2]; Wildtype, isolated Soleus): 343 nmol/g and 302 nmol/g and 363 nmol/g and 327 nmol/g and 293 nmol/g and 321 nmol/g
- 2-DG uptake Raio ([2]; Wildtype, isolated Soleus): 1.76 and 1.67 and 2.01 and 2.02 and 1.75 and 1.84
- IC 2DOG [3, 5]: 385 nmol/g and 372 nmol/g and 382 nmol/g
- Raio (2-DG uptake relative to unstimulated control) [3, 5]: 2.15 and 2.08 and 2.17
- IC 2DOG ([3]; DS20060511 10 μM, electrical stimulation +, muscles #1-3): 366 nmol/g and 368 nmol/g and 397 nmol/g
- 2-DG uptake with electrical muscle stimulation ([3]; vs electrical stimulation alone, Fig. 6a): elevated to a greater degree
- Blood glucose ([4]; 0 min): 96 mg/dL and 111 mg/dL and 104 mg/dL and 93 mg/dL and 82 mg/dL
- Blood glucose ([4]; 15 min): 260 mg/dL and 212 mg/dL and 232 mg/dL and 229 mg/dL and 231 mg/dL and 181 mg/dL
- Blood glucose ([4]; 30 min): 253 mg/dL and 242 mg/dL and 215 mg/dL and 185 mg/dL and 284 mg/dL and 213 mg/dL
- Blood glucose ([4]; 60 min): 212 mg/dL and 210 mg/dL and 226 mg/dL and 281 mg/dL and 196 mg/dL
- Blood glucose ([4]; 90 min): 159 mg/dL and 172 mg/dL and 132 mg/dL and 150 mg/dL and 218 mg/dL and 154 mg/dL
- Blood glucose ([4]; 120 min): 120 mg/dL and 128 mg/dL and 115 mg/dL and 130 mg/dL and 170 mg/dL and 127 mg/dL
- Blood glucose ([4]; -15 min): 79 mg/dL and 94 mg/dL and 75 mg/dL and 91 mg/dL and 73 mg/dL and 81 mg/dL
- blood glucose levels during oral GTT (in words) ([4]; WT and eNOSKO mice, 10 mg kg−1 po): significantly decreased blood glucose levels in both the WT and eNOSKO mice
